According to US12612372B2, “Oxopyridazinyl-phenyl-carbonohydrazonoyl dicyanide compound and use thereof” (KOREA INSTITUTE OF SCIENCE AND TECHNOLOGY, priority 2020, dated 2026):
Where two headings read alike, the source gives them in different places.

How the values were obtained:
tau protein = biological target: T1, tau protein (Homo sapiens, UniProt P10636); assay: Tau-BiFC cell model, Forskolin-induced tau protein aggregation; format: cell-based; details: for Tau BiFC in cells Response (%, @10 μM): 10 μM compound, BiFC fluorescence relative to Forskolin-only group (100% tau protein-aggregated state)
T1 construct: fused on or other part: Split Venus fragments VN173 and VC155, each fused to one copy of tau as BiFC reporter halves
Description: (§1) In order to select novel tau protein aggregation—inhibiting substances, tau-BiFC cell model, in which formation of tau oligomers in living cells is easily observed, was used. Tau-BiFC cells were aliquoted into a 384-well plate. […] After 48 hours, nuclei in the cells were stained using Hoechst (at a treatment concentration of 2 μg/mL), and BiFC fluorescence intensity was automatically measured using Operetta (PerkinElmer) to count stained nuclei in each well out of the entire well plate. […] Furthermore, the degree of cytotoxicity induced by the newly synthesized compound was also measured based on the 100% cell viability of the group treated only with Forskolin as a reference, and the cytotoxicity value of each compound was calculated using the equation “(number of stained nuclei in group treated with compound/number of stained nuclei in group treated with Forskolin)×100”.
(§2) After 48 hours, tau protein aggregation reaction and degrees of cytotoxicity were analyzed by observing images of the cells. IC50 and toxicity of the compounds were analyzed by nonlinear regression analysis of Prism software (Graph Pad).

Tau-BiFC cells = assay: Cell viability (stained nuclei count) in tau-BiFC cells
Description: as §1, §2

CYP1A2 = biological target: T2, CYP1A2 (Homo sapiens, UniProt P05177); assay: CYP coenzyme activity in human liver microsomes, CYP1A2; format: in vitro ADME; details: 10 μM compound, human liver microsomes 0.25 mg/mL, substrate phenacetin, 15 minutes
T2 construct: human liver microsomes (0.25 mg/mL); from tissue; host or cells: human liver microsomes
T2 sequence (P05177 1-516): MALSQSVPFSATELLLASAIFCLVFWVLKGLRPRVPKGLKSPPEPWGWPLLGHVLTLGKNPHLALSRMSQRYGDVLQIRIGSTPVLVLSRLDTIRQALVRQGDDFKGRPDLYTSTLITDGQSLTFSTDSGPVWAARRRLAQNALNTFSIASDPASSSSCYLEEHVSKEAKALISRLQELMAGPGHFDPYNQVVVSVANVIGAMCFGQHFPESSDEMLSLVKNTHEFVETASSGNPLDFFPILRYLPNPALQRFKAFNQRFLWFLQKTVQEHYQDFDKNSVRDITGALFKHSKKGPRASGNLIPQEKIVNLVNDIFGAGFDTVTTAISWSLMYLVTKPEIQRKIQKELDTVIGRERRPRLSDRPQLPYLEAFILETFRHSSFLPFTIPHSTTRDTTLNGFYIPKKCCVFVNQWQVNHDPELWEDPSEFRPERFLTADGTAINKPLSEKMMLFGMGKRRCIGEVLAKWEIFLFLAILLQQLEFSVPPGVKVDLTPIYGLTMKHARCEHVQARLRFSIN
Description: (§3) Specifically, human liver microsomes (0.25 mg/mL), a 0.1 M phosphate buffer solution (pH 7.4), a substrate drug cocktail of five types of drug metabolism enzymes (50 μM phenacetin, 10 μM diclofenac, 100 μM S-mephenytoin, 5 μM dextromethorphan, and 2.5 μM midazolam), and the compound at a concentration of 0 μM or 10 μM were mixed and pre-cultured at 37° C. for 5 minutes, and then further cultured at 37° C. for 15 minutes together with an NADPH generation system solution added thereto. Thereafter, the reaction was terminated by adding an acetonitrile solution containing an internal standard material (terfenadine) and centrifuged for 5 minutes (14,000 rpm, 4° C.), and then a supernatant was injected into an LC-MS/MS system for simultaneous analysis of metabolites of the substrate drugs to thereby evaluate the inhibitory effects on drug metabolism.
(§4) Metabolites of each CYP coenzyme indicator drug generated through the reaction were analyzed using the Shimadzu Nexera XR system and TSQ Vantage (Thermo). In an HPLC column, Kinetex C18 (2.1 mm×100 mm, 2.6 μm particle size; Phenomenex, USA) was used, and mobile phases were (A) distilled water containing 0.1% formic acid and (B) acetonitrile containing 0.1% formic acid, and a gradient program shown in Table 3 was applied thereto.
(§5) The generated metabolites were quantified using a multiple reaction monitoring (MRM) quantification mode, and Xcalibur (version 1.6.1) was used for data analysis. In order to express the inhibitory effects of the novel compounds prepared according to the examples of the present invention on CYP coenzyme activity, CYP coenzyme activities (%) with respect to the control group not treated with any compound are shown in Table 4 below.

CYP2C9 = biological target: T3, CYP2C9 (Homo sapiens, UniProt P11712); assay: CYP coenzyme activity in human liver microsomes, CYP2C9; format: in vitro ADME; details: 10 μM compound, human liver microsomes 0.25 mg/mL, substrate diclofenac, 15 minutes
T3 construct: human liver microsomes (0.25 mg/mL); from tissue; host or cells: human liver microsomes
Description: as §3, §4, §5

CYP2C19 = biological target: T4, CYP2C19 (Homo sapiens, UniProt P33261); assay: CYP coenzyme activity in human liver microsomes, CYP2C19; format: in vitro ADME; details: 10 μM compound, human liver microsomes 0.25 mg/mL, substrate S-mephenytoin, 15 minutes
T4 construct: human liver microsomes (0.25 mg/mL); from tissue; host or cells: human liver microsomes
Description: as §3, §4, §5

CYP2D6 = biological target: T5, CYP2D6 (Homo sapiens, UniProt P10635); assay: CYP coenzyme activity in human liver microsomes, CYP2D6; format: in vitro ADME; details: 10 μM compound, human liver microsomes 0.25 mg/mL, substrate dextromethorphan, 15 minutes
T5 construct: human liver microsomes (0.25 mg/mL); from tissue; host or cells: human liver microsomes
Description: as §3, §4, §5

CYP3A4 = biological target: T6, CYP3A4 (Homo sapiens, UniProt P08684); assay: CYP coenzyme activity in human liver microsomes, CYP3A4; format: in vitro ADME; details: 10 μM compound, human liver microsomes 0.25 mg/mL, substrate midazolam, 15 minutes
T6 construct: human liver microsomes (0.25 mg/mL); from tissue; host or cells: human liver microsomes
Description: as §3, §4, §5

[1] = Liver microsome stability, human; format: in vitro ADME; details: human liver microsomes 0.25 mg/mL, 1 μM compound, 37° C., 30 minutes, NADPH
Description: (§6) The stability of liver microsomes due to the compounds prepared according to Examples 1 to 14 was confirmed. Specifically, four types of liver microsomes (human, dog, rat, and mouse, each 0.25 mg/mL), a 0.1 M phosphate buffer solution (pH 7.4), and each of the compounds at a concentration of 1 μM were mixed and pre-cultured at 37° C. for 5 minutes and further cultured at 37° C. for 30 minutes together with an NADPH generation system solution added thereto. Thereafter, the reaction was terminated by adding an acetonitrile solution containing an internal standard material (chlorpropamide) and centrifuged for 5 minutes (14,000 rpm, 4° C.), and then a supernatant was injected into an LC-MS/MS system for analysis of substrate drugs to thereby evaluate metabolic stability due to 8 types of compounds.
(§7) The amount of the substrate remaining after the reaction was analyzed using the Shimadzu Nexera XR system and TSQ Vantage (Thermo). In an HPLC column, Kinetex XB-C18 (2.1 mm×100 mm, particle size of 2.6 μm; Phenomenex, USA) was used, and mobile phases were (A) distilled water containing 0.1% formic acid and (B) acetonitrile containing 0.1% formic acid. Analyst software (version 1.6.3) and Xcalibur (version 1.6.1) were used for data analysis.

[2] = Liver microsome stability, dog; format: in vitro ADME; details: dog liver microsomes 0.25 mg/mL, 1 μM compound, 37° C., 30 minutes, NADPH
Description: as §6, §7

[3] = Liver microsome stability, rat; format: in vitro ADME; details: rat liver microsomes 0.25 mg/mL, 1 μM compound, 37° C., 30 minutes, NADPH
Description: as §6, §7

[4] = Liver microsome stability, mouse; format: in vitro ADME; details: mouse liver microsomes 0.25 mg/mL, 1 μM compound, 37° C., 30 minutes, NADPH
Description: as §6, §7

[5] = 10 μM compound, stained nuclei relative to Forskolin-only group (100%), 48 hours
[6] = tau-BiFC cells, Forskolin 30 μM, 48 hours, read-out: Tau BiFC in cells IC50

T4 sequence (P33261 whole entry): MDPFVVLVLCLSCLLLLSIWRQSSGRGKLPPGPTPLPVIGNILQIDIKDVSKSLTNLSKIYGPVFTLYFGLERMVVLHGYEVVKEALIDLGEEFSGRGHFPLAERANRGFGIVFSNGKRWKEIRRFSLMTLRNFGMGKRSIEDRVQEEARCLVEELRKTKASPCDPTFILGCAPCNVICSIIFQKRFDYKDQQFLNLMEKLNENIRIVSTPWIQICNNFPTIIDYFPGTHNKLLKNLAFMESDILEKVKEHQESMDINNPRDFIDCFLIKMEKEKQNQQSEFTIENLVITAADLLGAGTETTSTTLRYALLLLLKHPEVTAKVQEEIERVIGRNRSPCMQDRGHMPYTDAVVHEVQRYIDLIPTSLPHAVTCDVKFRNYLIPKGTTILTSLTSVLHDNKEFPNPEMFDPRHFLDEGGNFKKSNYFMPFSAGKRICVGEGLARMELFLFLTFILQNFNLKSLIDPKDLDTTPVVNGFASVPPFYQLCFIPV
T3 sequence (P11712 whole entry): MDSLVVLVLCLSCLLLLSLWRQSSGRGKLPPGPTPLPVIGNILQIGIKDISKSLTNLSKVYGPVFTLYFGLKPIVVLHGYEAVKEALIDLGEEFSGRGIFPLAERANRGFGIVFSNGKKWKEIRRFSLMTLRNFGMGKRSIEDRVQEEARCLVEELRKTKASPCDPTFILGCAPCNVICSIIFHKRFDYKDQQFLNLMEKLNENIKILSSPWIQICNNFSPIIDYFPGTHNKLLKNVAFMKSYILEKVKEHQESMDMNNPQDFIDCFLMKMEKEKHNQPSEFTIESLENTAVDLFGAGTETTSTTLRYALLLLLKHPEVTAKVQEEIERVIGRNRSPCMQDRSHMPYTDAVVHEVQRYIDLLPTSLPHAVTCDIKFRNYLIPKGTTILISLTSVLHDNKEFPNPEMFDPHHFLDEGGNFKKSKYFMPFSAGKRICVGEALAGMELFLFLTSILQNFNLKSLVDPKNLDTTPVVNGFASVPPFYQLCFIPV
T5 sequence (P10635 whole entry): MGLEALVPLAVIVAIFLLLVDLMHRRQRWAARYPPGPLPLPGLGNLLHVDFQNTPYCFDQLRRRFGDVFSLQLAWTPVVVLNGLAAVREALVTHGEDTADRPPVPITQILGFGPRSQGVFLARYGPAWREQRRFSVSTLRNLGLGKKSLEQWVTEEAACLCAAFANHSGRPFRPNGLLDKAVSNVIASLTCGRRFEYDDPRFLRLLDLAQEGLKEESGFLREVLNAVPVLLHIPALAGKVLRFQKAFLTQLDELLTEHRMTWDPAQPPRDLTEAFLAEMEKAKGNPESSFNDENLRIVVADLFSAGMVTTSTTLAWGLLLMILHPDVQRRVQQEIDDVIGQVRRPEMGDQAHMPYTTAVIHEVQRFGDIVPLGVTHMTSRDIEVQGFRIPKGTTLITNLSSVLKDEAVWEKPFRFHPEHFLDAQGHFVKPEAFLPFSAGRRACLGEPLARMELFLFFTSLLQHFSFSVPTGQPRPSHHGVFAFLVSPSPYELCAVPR
T1 sequence (P10636 2-441 isoform P10636-8 limits assumed): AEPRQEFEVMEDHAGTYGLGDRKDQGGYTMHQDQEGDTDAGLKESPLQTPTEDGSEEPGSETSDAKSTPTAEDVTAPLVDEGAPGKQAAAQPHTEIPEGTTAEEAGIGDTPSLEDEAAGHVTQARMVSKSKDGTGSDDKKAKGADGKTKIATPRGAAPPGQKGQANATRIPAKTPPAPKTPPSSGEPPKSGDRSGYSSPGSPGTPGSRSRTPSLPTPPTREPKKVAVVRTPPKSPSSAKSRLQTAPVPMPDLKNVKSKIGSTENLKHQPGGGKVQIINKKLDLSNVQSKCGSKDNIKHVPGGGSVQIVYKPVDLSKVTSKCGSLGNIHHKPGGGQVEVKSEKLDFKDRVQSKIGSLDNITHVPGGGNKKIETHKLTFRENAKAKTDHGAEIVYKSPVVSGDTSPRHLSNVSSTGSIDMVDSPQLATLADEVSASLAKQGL
T6 sequence (P08684 whole entry): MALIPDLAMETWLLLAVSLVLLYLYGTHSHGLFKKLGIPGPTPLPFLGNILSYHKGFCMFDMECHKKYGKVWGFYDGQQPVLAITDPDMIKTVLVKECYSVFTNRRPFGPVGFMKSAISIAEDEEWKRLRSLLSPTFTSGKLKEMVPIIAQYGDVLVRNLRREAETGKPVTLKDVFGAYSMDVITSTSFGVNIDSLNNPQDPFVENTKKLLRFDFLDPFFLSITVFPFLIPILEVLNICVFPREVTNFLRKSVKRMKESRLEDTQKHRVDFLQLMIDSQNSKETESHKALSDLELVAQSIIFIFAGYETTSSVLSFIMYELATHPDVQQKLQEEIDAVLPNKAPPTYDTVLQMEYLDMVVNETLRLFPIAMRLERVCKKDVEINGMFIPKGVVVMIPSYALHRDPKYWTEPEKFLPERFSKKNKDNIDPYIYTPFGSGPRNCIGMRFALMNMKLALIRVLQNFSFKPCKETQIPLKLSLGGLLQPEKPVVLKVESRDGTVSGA

| SMILES | Tau BiFC in cells Response (%, @10 μM) (tau protein; 48 hours) | Cell viability (%, @10 μM) (Tau-BiFC cells; [5]) | IC50 (tau protein; [6]) | other results |
| --- | --- | --- | --- | --- |
| N#CC(C#N)=NNc1ccc(-c2ccc(=O)[nH]n2)cc1 [Comparative Example 1, reference compound] | 10.1% | 130.3% |  | IC50 (tau protein; Tau BiFC in cells IC50, tau-BiFC cells, Forskolin 30 μM, 48 hours): 16.8 µM |
| Cc1cc(=O)[nH]nc1-c1ccc(NN=C(C#N)C#N)cc1 [Comparative Example 2, reference compound] | 1.8% | 128.6% | 3.5 µM |  |
| Cc1cc(-c2ccc(NN=C(C#N)C#N)cc2)n[nH]c1=O [Comparative Example 3, reference compound] | 37.11% | 113.1% | > 10 µM |  |
| CC1CC(=O)NN=C1c1ccc(NN=C(C#N)C#N)cc1 (stereo not shown) [Comparative Example 4, reference compound] | 45.7% | 120.3% | > 10 µM |  |
| N#CC(C#N)=NNc1ccc(-n2ncccc2=O)cc1 [Comparative Example 5, reference compound] | 35.1% | 124.2% | > 10 µM |  |
| Cc1ccc(=O)n(-c2ccc(NN=C(C#N)C#N)cc2)n1 [Comparative Example 6, reference compound] | 46.7% | 114.9% | > 10 µM |  |
| Cc1cnn(-c2ccc(NN=C(C#N)C#N)cc2)c(=O)c1 [Comparative Example 7, reference compound] | 19.4% | 102.3% | 4.5 µM |  |
| Cc1ccnn(-c2ccc(NN=C(C#N)C#N)cc2)c1=O [Comparative Example 8, reference compound] | 0% |  | 2.5 µM | Cell viability (%, @10 μM) (Tau-BiFC cells; 48 h, 10 μM): 110.1% |
| CC(C)N1N=C(c2ccc(NN=C(C#N)C#N)cc2)CCC1=O [Example 1, (4-(1-isopropyl-6-oxo-1,4,5,6-tetrahydropyridazin-3-yl)phenyl)carbonohydrazonoyl dicyanide] |  | 110.1% |  | CYP1A2 activity (%) with respect to control group not treated with any compound (CYP1A2): 79%; CYP2C9 activity (%) with respect to control group not treated with any compound (CYP2C9): 70.4%; CYP2C19 activity (%) with respect to control group not treated with any compound (CYP2C19): 70.8%; CYP2D6 activity (%) with respect to control group not treated with any compound (CYP2D6): 74.6%; CYP3A4 activity (%) with respect to control group not treated with any compound (CYP3A4): 81.7%; Human (%) amount remaining after the reaction [1]: 6.4%; Dog (%) amount remaining after the reaction [2]: >100%; Rat (%) amount remaining after the reaction [3]: >100%; Mouse (%) amount remaining after the reaction [4]: >100% |
| CC1CC(=O)N(C(C)C)N=C1c1ccc(NN=C(C#N)C#N)cc1 (stereo not shown) [Example 2, (4-(1-isopropyl-4-methyl-6-oxo-1,4,5,6-tetrahydropyridazin-3-yl)phenyl)carbonohydrazonoyl dicyanide] | 0% | 102.8% |  | IC50 (tau protein): 0.4 µM; CYP1A2 activity (%) with respect to control group not treated with any compound (CYP1A2): 80.5%; CYP2C9 activity (%) with respect to control group not treated with any compound (CYP2C9): 65.7%; CYP2C19 activity (%) with respect to control group not treated with any compound (CYP2C19): 64.7%; CYP2D6 activity (%) with respect to control group not treated with any compound (CYP2D6): 84.9%; CYP3A4 activity (%) with respect to control group not treated with any compound (CYP3A4): 74.6%; Human (%) amount remaining after the reaction [1]: 63.6%; Dog (%) amount remaining after the reaction [2]: >100%; Rat (%) amount remaining after the reaction [3]: 92.5%; Mouse (%) amount remaining after the reaction [4]: 89% |
| CCN1N=C(c2ccc(NN=C(C#N)C#N)cc2)C(C)CC1=O (stereo not shown) [Example 3, (4-(1-ethyl-4-methyl-6-oxo-1,4,5,6-tetrahydropyridazin-3-yl)phenyl)carbonohydrazonoyl dicyanide] | 0% | 68.2% |  | IC50 (tau protein): 0.09 µM; CYP1A2 activity (%) with respect to control group not treated with any compound (CYP1A2): >100%; CYP2C9 activity (%) with respect to control group not treated with any compound (CYP2C9): 99.9%; CYP2C19 activity (%) with respect to control group not treated with any compound (CYP2C19): >100%; CYP2D6 activity (%) with respect to control group not treated with any compound (CYP2D6): 93.6%; CYP3A4 activity (%) with respect to control group not treated with any compound (CYP3A4): >100%; Human (%) amount remaining after the reaction [1]: 90.3%; Dog (%) amount remaining after the reaction [2]: 91.9%; Rat (%) amount remaining after the reaction [3]: 89.6%; Mouse (%) amount remaining after the reaction [4]: 89.6% |
| COc1ccc(N2N=C(c3ccc(NN=C(C#N)C#N)cc3)C(C)CC2=O)cc1 (stereo not shown) [Example 7, (4-(1-(4-methoxyphenyl)-4-methyl-6-oxo-1,4,5,6-tetrahydropyridazin-3-yl)phenyl)carbonohydrazonoyl dicyanide] | 2.3% | 89.3% |  | IC50 (tau protein): 0.94 µM |
| C[C@@H]1CC(=O)NN=C1c1ccc(NN=C(C#N)C#N)cc1 [Levosimendan, reference compound] | 9.58% | 73.21% | 1.44 µM |  |
